Test results: PubChem BioAssay (NCI)
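48-hour exposure; five concentrations; linearly interpolated endpoints. TGI is the concentration that stops growth completely.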

Columns and labels:
Assay in all cases: NCI tumour cell line growth inhibition, 48 h
SK-OV-3 ovarian = test system: SK-OV-3 ovarian
PC-3 prostate = test system: PC-3 prostate
SN12C renal = test system: SN12C renal
SF-268 CNS = test system: SF-268 CNS
SF-539 CNS = test system: SF-539 CNS
K-562 leukemia = test system: K-562 leukemia
KM12 colon = test system: KM12 colon
SF-295 CNS = test system: SF-295 CNS
A549 NSCLC = test system: A549 NSCLC
MCF7 breast = test system: MCF7 breast
MDA-MB-231 breast = test system: MDA-MB-231 breast
NCI-H460 lung = test system: NCI-H460 lung
HOP-92 NSCLC = test system: HOP-92 NSCLC
DU-145 prostate = test system: DU-145 prostate
HT29 colon = test system: HT29 colon
OVCAR-8 ovarian = test system: OVCAR-8 ovarian
IGROV1 ovarian = test system: IGROV1 ovarian
OVCAR-3 ovarian = test system: OVCAR-3 ovarian
HL-60(TB) leukemia = test system: HL-60(TB) leukemia
SK-MEL-28 melanoma = test system: SK-MEL-28 melanoma

| Structure (SMILES) | TGI (SK-OV-3 ovarian) [µM] | TGI (PC-3 prostate) [µM] | TGI (SN12C renal) [µM] | TGI (SF-268 CNS) [µM] | TGI (SF-539 CNS) [µM] | TGI (K-562 leukemia) [µM] | TGI (KM12 colon) [µM] | TGI (SF-295 CNS) [µM] | TGI (A549 NSCLC) [µM] | TGI (MCF7 breast) [µM] | TGI (MDA-MB-231 breast) [µM] | TGI (NCI-H460 lung) [µM] | TGI (HOP-92 NSCLC) [µM] | TGI (DU-145 prostate) [µM] | TGI (HT29 colon) [µM] | TGI (OVCAR-8 ovarian) [µM] | TGI (IGROV1 ovarian) [µM] | TGI (OVCAR-3 ovarian) [µM] | TGI (HL-60(TB) leukemia) [µM] | TGI (SK-MEL-28 melanoma) [µM] |
| --- | --- | --- | --- | --- | --- | --- | --- | --- | --- | --- | --- | --- | --- | --- | --- | --- | --- | --- | --- | --- |
| CCCC[Si](CCCC)(CCCC)O[C@@H](/C=C/C(=O)OCC)[C@H](Cc1ccccc1)O[Si](CCCC)(CCCC)CCCC | > 100 | > 100 | > 100 | > 100 | > 100 | > 100 | > 100 | > 100 | > 100 | > 100 | > 100 | > 100 | > 100 | > 100 | > 100 | > 100 | > 100 | – | – | – |
| Cc1cc(-c2ccc(Cl)cc2)c(C#N)c(=S)n1C1OC(CO)C(O)C(O)C1O (stereo not given) | > 100 | > 100 | > 100 | > 100 | > 100 | – | > 100 | > 100 | > 100 | > 100 | > 100 | > 100 | – | > 100 | > 100 | > 100 | > 100 | > 100 | > 100 | > 100 |
| CN(C)N1C(=O)CC2(CCN(CCCC(=O)c3ccc(F)cc3)CC2)C1=O | > 100 | > 100 | > 100 | > 100 | > 100 | > 100 | > 100 | > 100 | > 100 | > 100 | > 100 | > 100 | – | > 100 | > 100 | > 100 | > 100 | > 100 | > 100 | > 100 |
| COc1cc(C2SC(N)=Nc3c2c(C)nn3C(=O)Cc2ccccc2)ccc1O (stereo not given) | > 100 | > 100 | > 100 | > 100 | > 100 | > 100 | > 100 | > 100 | > 100 | > 100 | > 100 | > 100 | – | > 100 | > 100 | > 100 | > 100 | – | > 100 | > 100 |
| O=C1CCC2(c3ccc(F)cc3)Nc3ncncc3N12 (stereo not given) | – | > 10 | > 10 | > 10 | > 10 | > 10 | > 10 | > 10 | > 10 | > 10 | – | > 10 | > 10 | > 10 | > 10 | > 10 | > 10 | > 10 | – | – |
| COc1ccc(-n2nnnc2C2(Nc3ccccc3)CCN(Cc3ccccc3)CC2)cc1 | 86.2 | – | 28 | – | 34.6 | 15.4 | 18.8 | 28.9 | 45.8 | 23.3 | 32.3 | 42 | – | > 100 | 21.3 | 54.6 | 41.2 | – | 8.14 | 26.6 |
| CC1=NN(c2ccccc2)C(=O)C1C(=O)C(=O)Nc1ccc(C)cc1C (stereo not given) | > 100 | > 100 | > 100 | > 100 | > 100 | > 100 | > 100 | > 100 | > 100 | > 100 | – | > 100 | > 100 | > 100 | > 100 | > 100 | > 100 | > 100 | > 100 | > 100 |
| CC(=O)O[C@H]1C(=O)[C@@]2(C)[C@H]([C@H](OC(=O)c3ccncc3)[C@]3(O)C[C@H](OC(=O)[C@H](O)[C@@H](NC(=O)c4ccccc4)c4ccccc4)C(C)=C1C3(C)C)[C@]1(OC(C)=O)CO[C@@H]1C[C@@H]2O | > 25 | > 21 | > 25 | > 25 | 4.55 | 5.36 | > 25 | > 25 | > 25 | > 25 | > 25 | > 25 | – | > 25 | > 25 | > 25 | > 25 | > 18.5 | 1.63 | > 25 |
| O=C1C(c2c(O)[nH]c3ccc(S(=O)(=O)N(CCO)CCO)cc23)=Nc2ccccc21 | > 100 | > 100 | > 100 | > 100 | – | > 100 | > 100 | > 100 | > 100 | > 100 | > 100 | > 100 | > 100 | 72.3 | > 100 | > 100 | > 100 | > 100 | – | > 100 |
| Cc1cc2nc3c(C#N)c(-c4ccccc4)cc(Nc4cccc(C(F)(F)F)c4)n3c2cc1C | 44 | 16 | 25.2 | 61.2 | 13.6 | 1.2 | > 100 | 44.6 | 16.8 | 22.5 | 16.2 | 11.5 | – | – | – | > 100 | – | 8.41 | – | 50.6 |
| COC(=O)c1cc(/C=C2\Cc3cc4c(cc3C2=O)CCC4)cc2c1CCC2 | > 100 | > 100 | > 100 | > 100 | > 100 | > 100 | > 100 | > 100 | > 100 | > 100 | > 100 | > 100 | – | > 100 | > 100 | > 100 | > 100 | > 100 | > 100 | > 100 |
| CCC(C)(C)c1ccc(Oc2cccc(C(=O)O)c2)cc1 | > 100 | > 100 | > 100 | > 100 | > 100 | > 100 | > 100 | > 100 | > 100 | > 100 | > 100 | > 100 | – | > 100 | > 100 | > 100 | > 100 | 70.1 | > 100 | > 100 |
| CCOC(=O)c1cc(C2(OC)CCN(Cc3ccccc3)C2=O)c(-c2cc(C)no2)[nH]1 (stereo not given) | > 100 | > 100 | – | > 100 | – | > 100 | > 100 | > 100 | > 100 | > 100 | > 100 | > 100 | > 100 | > 100 | > 100 | > 100 | > 100 | > 100 | – | > 100 |
